Test results as given in patent publication US20230373985A1 (Origenis Gmbh, priority 2020, published 2023).

Experiments:
[1] = biological target: T1, wt human TYK2, catalytic site (Homo sapiens, UniProt P29597); test: HTRF KinEASE assay, TYK2; format: biochemical; settings: 1 μM ATP; read-out: IC50, Activity Toward TYK2
T1 construct: wt human TYK2, catalytic site; purchased SignalChem
T1 sequence (P29597 897-1176 limits assumed): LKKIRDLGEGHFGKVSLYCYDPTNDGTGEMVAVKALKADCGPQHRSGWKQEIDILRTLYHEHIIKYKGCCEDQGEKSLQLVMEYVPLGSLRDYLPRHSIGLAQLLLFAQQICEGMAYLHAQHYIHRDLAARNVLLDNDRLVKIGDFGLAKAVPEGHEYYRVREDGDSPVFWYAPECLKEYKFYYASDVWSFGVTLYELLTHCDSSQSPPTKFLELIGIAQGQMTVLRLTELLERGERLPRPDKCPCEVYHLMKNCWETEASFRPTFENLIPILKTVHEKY
Procedure, shortened: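 Kinase reaction run at room temperature for at least 30 min: 2 nM TYK2 with 1 μM ATP, or 1 nM JAK2 with 100 μM ATP, each with 1 μM biotin-TK substrate. Phosphorylation detected by HTRF (60 min antibody/XL665) and evaluated from emission ratios.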

[2] = biological target: T2, wt human JAK1, catalytic site (Homo sapiens, UniProt P23458); test: HTRF KinEASE assay, JAK1; format: biochemical; settings: 2.5 μM ATP; read-out: IC50, Activity Toward JAK1
T2 construct: wt human JAK1, catalytic site; purchased ThermoFisher
Procedure, shortened: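 Compounds in DMSO dilution were mixed with kinase, biotin-TK substrate and ATP and reacted for ≥30 min at room temperature. Detection reagents (antibody, streptavidin-XL665) were read 60 min later as HTRF, with emission ratios analysed per KinEASE protocol.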

T2 sequence (P23458 875-1153 limits assumed): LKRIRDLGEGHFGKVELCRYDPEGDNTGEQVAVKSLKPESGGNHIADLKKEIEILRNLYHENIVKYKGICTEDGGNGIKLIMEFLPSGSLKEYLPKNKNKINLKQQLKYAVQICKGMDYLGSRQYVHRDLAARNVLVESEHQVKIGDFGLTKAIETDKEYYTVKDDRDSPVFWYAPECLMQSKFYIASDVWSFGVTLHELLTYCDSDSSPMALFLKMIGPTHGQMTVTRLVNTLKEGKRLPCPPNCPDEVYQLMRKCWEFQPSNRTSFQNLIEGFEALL

Structure (SMILES)	IC50 [1] [nM]	IC50 [2] [nM]
CN1CCn2c(nnc2-c2ccc(Nc3cn(-c4c(Cl)cccc4Cl)nc3C(N)=O)cc2)C1 [compound 269, 1-(2,6-dichlorophenyl)-4-((4-(7-methyl-5,6,7,8-tetrahydro-[1,2,4]triazolo[4,3-a]pyrazin-3-yl)phenyl)amino)-1H-pyrazole-3-carboxamide]	10 to 100	10 to 100
COCn1cc(C(F)(F)F)nc1-c1ccc(Nc2cn(-c3c(Cl)cccc3Cl)nc2C(N)=O)cc1 [compound 292, 1-(2,6-dichlorophenyl)-4-((4-(1-(methoxymethyl)-4-(trifluoromethyl)-1H-imidazol-2-yl)phenyl)amino)-1H-pyrazole-3-carboxamide]	< 10	10 to 100
CCn1cc(C(F)(F)F)nc1-c1ccc(Nc2cn(-c3c(Cl)cccc3Cl)nc2C(N)=O)cc1 [compound 293, 1-(2,6-dichlorophenyl)-4-((4-(1-ethyl-4-(trifluoromethyl)-1H-imidazol-2-yl)phenyl)amino)-1H-pyrazole-3-carboxamide]	10 to 100	10 to 100
Cn1cc(C(F)(F)F)nc1-c1ccc(Nc2cn(-c3c(Cl)cccc3Cl)nc2C(N)=O)cc1 [compound 294, 1-(2,6-dichlorophenyl)-4-((4-(1-methyl-4-(trifluoromethyl)-1H-imidazol-2-yl)phenyl)amino)-1H-pyrazole-3-carboxamide]	< 10	10 to 100
COCc1nc(C(F)(F)F)nn1-c1ccc(Nc2cn(-c3c(F)cccc3Cl)nc2C(N)=O)cc1 [compound 298, 1-(2-chloro-6-fluorophenyl)-4-((4-(5-(methoxymethyl)-3-(trifluoromethyl)-1H-1,2,4-triazol-1-yl)phenyl)amino)-1H-pyrazole-3-carboxamide]	10 to 100	100 to 1000
COCCn1cc(C(F)(F)F)nc1-c1ccc(Nc2cn(-c3c(Cl)cccc3Cl)nc2C(N)=O)cc1 [compound 307, 1-(2,6-dichlorophenyl)-4-((4-(1-(2-methoxyethyl)-4-(trifluoromethyl)-1H-imidazol-2-yl)phenyl)amino)-1H-pyrazole-3-carboxamide]	10 to 100	100 to 1000
CC(C)(C)OC(=O)N[C@@H]1CCN(C(=O)c2ccc(Nc3cn(-c4c(Cl)cccc4Cl)nc3C(N)=O)cc2)C1 [compound 324, (R)-tert-butyl_(1-(4-((3-carbamoyl-1-(2,6-dichlorophenyl)-1H-pyrazol-4-yl)amino)benzoyl)pyrrolidin-3-yl)carbamate]	100 to 1000	100 to 1000
CC(C)(C)OC(=O)N[C@H]1CCN(C(=O)c2ccc(Nc3cn(-c4c(Cl)cccc4Cl)nc3C(N)=O)cc2)C1 [compound 325, (S)-tert-butyl_(1-(4-((3-carbamoyl-1-(2,6-dichlorophenyl)-1H-pyrazol-4-yl)amino)benzoyl)pyrrolidin-3-yl)carbamate]	10 to 100	100 to 1000
Cc1cnncc1-c1ccc(Nc2cn(-c3c(Cl)cccc3Cl)nc2C(N)=O)cn1 [compound 350, 1-(2,6-dichlorophenyl)-4-((6-(5-methylpyridazin-4-yl)pyridin-3-yl)amino)-1H-pyrazole-3-carboxamide]	100 to 1000	100 to 1000
CCc1cnncc1-c1ccc(Nc2cn(-c3c(Cl)cccc3Cl)nc2C(N)=O)cn1 [compound 351, 1-(2,6-dichlorophenyl)-4-((6-(5-ethylpyridazin-4-yl)pyridin-3-yl)amino)-1H-pyrazole-3-carboxamide]	10 to 100	100 to 1000
NC(=O)c1nn(-c2c(Cl)cccc2Cl)cc1Nc1ccc(-c2ccnnc2)nc1 [compound 352, 1-(2,6-dichlorophenyl)-4-((6-(pyridazin-4-yl)pyridin-3-yl)amino)-1H-pyrazole-3-carboxamide]	100 to 1000	100 to 1000
CN(C)[C@H]1CCN(C(=O)c2ccc(Nc3cn(-c4c(Cl)cccc4Cl)nc3C(N)=O)cn2)C1 [compound 354, (S)-1-(2,6-dichlorophenyl)-4-((6-(3-(dimethylamino)pyrrolidine-1-carbonyl)pyridin-3-yl)amino)-1H-pyrazole-3-carboxamide]	10 to 100	100 to 1000
NC(=O)c1nn(-c2c(Cl)cccc2Cl)cc1Nc1ccc(C(=O)N2CC[C@@H](N3CCCC3)C2)nc1 [compound 356, (R)-4-((6-([1,3′-bipyrrolidine]-1′-carbonyl)pyridin-3-yl)amino)-1-(2,6-dichlorophenyl)-1H-pyrazole-3-carboxamide]	10 to 100	100 to 1000

Other lines, results leading:

IC50 [1] [nM]	IC50 [2] [nM]	Structure (SMILES)
100 to 1000	100 to 1000	CC(C)Oc1ccc(Nc2cn(-c3c(Cl)cccc3Cl)nc2C(N)=O)cc1 [compound 261, 1-(2,6-dichlorophenyl)-4-((4-isopropoxyphenyl)amino)-1H-pyrazole-3-carboxamide]
100 to 1000	100 to 1000	CC(C)c1ccn(-c2ccc(Nc3cn(-c4c(Cl)cccc4Cl)nc3C(N)=O)cc2)n1 [compound 263, 1-(2,6-dichlorophenyl)-4-((4-(3-isopropyl-1H-pyrazol-1-yl)phenyl)amino)-1H-pyrazole-3-carboxamide]
10 to 100	10 to 100	CCS(=O)(=O)Nc1ccc(Nc2cn(-c3c(Cl)cccc3Cl)nc2C(N)=O)cc1 [compound 270, 1-(2,6-dichlorophenyl)-4-((4-(ethylsulfonamido)phenyl)amino)-1H-pyrazole-3-carboxamide]
10 to 100	10 to 100	CS(=O)(=O)Nc1ccc(Nc2cn(-c3c(Cl)cccc3Cl)nc2C(N)=O)cc1 [compound 271, 1-(2,6-dichlorophenyl)-4-((4-(methylsulfonamido)phenyl)amino)-1H-pyrazole-3-carboxamide]
10 to 100	10 to 100	CN(C)CCc1nnnn1-c1ccc(Nc2cn(-c3c(Cl)cccc3Cl)nc2C(N)=O)cc1 [compound 273, 1-(2,6-dichlorophenyl)-4-((4-(5-(2-(dimethylamino)ethyl)-1H-tetrazol-1-yl)phenyl)amino)-1H-pyrazole-3-carboxamide]
< 10	10 to 100	Cc1nc(C(F)(F)F)nn1-c1ccc(Nc2cn(-c3c(Cl)cccc3Cl)nc2C(N)=O)cc1 [compound 275, 1-(2,6-dichlorophenyl)-4-((4-(5-methyl-3-(trifluoromethyl)-1H-1,2,4-triazol-1-yl)phenyl)amino)-1H-pyrazole-3-carboxamide]
< 10	100 to 1000	CCc1nc(C(F)(F)F)nn1-c1ccc(Nc2cn(-c3c(Cl)cccc3Cl)nc2C(N)=O)cc1 [compound 277, 1-(2,6-dichlorophenyl)-4-((4-(5-ethyl-3-(trifluoromethyl)-1H-1,2,4-triazol-1-yl)phenyl)amino)-1H-pyrazole-3-carboxamide]
< 10	100 to 1000	COCc1nc(C(F)(F)F)nn1-c1ccc(Nc2cn(-c3c(Cl)cccc3Cl)nc2C(N)=O)cc1 [compound 281, 1-(2,6-dichlorophenyl)-4-((4-(5-(methoxymethyl)-3-(trifluoromethyl)-1H-1,2,4-triazol-1-yl)phenyl)amino)-1H-pyrazole-3-carboxamide]
10 to 100	< 10	CCc1ncnn1-c1ccc(Nc2cn(-c3c(Cl)cccc3Cl)nc2C(N)=O)cc1 [compound 291, 1-(2,6-dichlorophenyl)-4-((4-(5-ethyl-1H-1,2,4-triazol-1-yl)phenyl)amino)-1H-pyrazole-3-carboxamide]
< 10	100 to 1000	CN(C)Cc1nc(C(F)(F)F)nn1-c1ccc(Nc2cn(-c3c(Cl)cccc3Cl)nc2C(N)=O)cc1 [compound 297, 1-(2,6-dichlorophenyl)-4-((4-(5-((dimethylamino)methyl)-3-(trifluoromethyl)-1H-1,2,4-triazol-1-yl)phenyl)amino)-1H-pyrazole-3-carboxamide]
10 to 100	100 to 1000	COCc1ncnn1-c1ccc(Nc2cn(-c3c(Cl)cccc3Cl)nc2C(N)=O)cc1 [compound 300, 1-(2,6-dichlorophenyl)-4-((4-(5-(methoxymethyl)-1H-1,2,4-triazol-1-yl)phenyl)amino)-1H-pyrazole-3-carboxamide]
10 to 100	10 to 100	COCCc1nc(C(F)(F)F)nn1-c1ccc(Nc2cn(-c3c(Cl)cccc3Cl)nc2C(N)=O)cc1 [compound 330, 1-(2,6-dichlorophenyl)-4-((4-(5-(2-methoxyethyl)-3-(trifluoromethyl)-1H-1,2,4-triazol-1-yl)phenyl)amino)-1H-pyrazole-3-carboxamide]
10 to 100	100 to 1000	Cc1cnncc1-c1ccc(Nc2cn(-c3c(Cl)cccc3Cl)nc2C(N)=O)cc1 [compound 340, 1-(2,6-dichlorophenyl)-4-((4-(5-methylpyridazin-4-yl)phenyl)amino)-1H-pyrazole-3-carboxamide]
10 to 100	100 to 1000	CC(C)c1ncnn1-c1ccc(Nc2cn(-c3c(Cl)cccc3Cl)nc2C(N)=O)cc1 [compound 341, 1-(2,6-dichlorophenyl)-4-((4-(5-isopropyl-1H-1,2,4-triazol-1-yl)phenyl)amino)-1H-pyrazole-3-carboxamide]
< 10	10 to 100	NC(=O)c1nn(-c2c(Cl)cccc2Cl)cc1Nc1ccc(-n2ncnc2CO)cc1 [compound 348, 1-(2,6-dichlorophenyl)-4-((4-(5-(hydroxymethyl)-1H-1,2,4-triazol-1-yl)phenyl)amino)-1H-pyrazole-3-carboxamide]
